According to US20210186020A1, “AGRICULTURAL COMPOSITIONS AND METHODS OF USE THEREOF” (Valent U.S.A. LLC, priority 2019, published 2021):

Experiments:
[1] = tested on: barnyard grass; assay: Spray-chamber efficacy of S-3100 with or without fertilizer on potted barnyard grass; type: in vivo, Echinochloa crus-galli; settings: barnyard grass 10 inches, S-3100 20 grams/ha, Fertilizer 14 liters/ha, 1% v/v Agridex (combination also 1% v/v Intact)
Description: 4 trials were conducted on the efficacy of ethyl [3-[2-chloro-4-fluoro-5-(1-methyl-6-trifluoromethyl-2,4-dioxo-1,2,3,4-tetrahydropyrimidin-3-yl)phenoxy]-2-pyridyloxy]acetate (“S-3100”) with or without a mannitol and/or sorbitol comprising fertilizer. Specifically, 4 pots of barnyard grass were grown to 10 inches in height. These pots were placed in a spray chamber for treatment. All compositions contained 1% v/v of Agridex®. The composition containing S-3100 and fertilizer contained 1% v/v of Intact™. Treatments and results can be found in Table 1, below.

[2] = tested on: broadleaf grass; assay: Spray-chamber efficacy of S-3100 with or without fertilizer on potted broadleaf grass; type: in vivo; settings: broadleaf grass 10 inches, S-3100 20 grams/ha, Fertilizer 14 liters/ha, 1% v/v Agridex (combination also 1% v/v Intact)
Description: 4 trials were conducted on the efficacy of ethyl [3-[2-chloro-4-fluoro-5-(1-methyl-6-trifluoromethyl-2,4-dioxo-1,2,3,4-tetrahydropyrimidin-3-yl)phenoxy]-2-pyridyloxy]acetate (“S-3100”) with or without a mannitol and/or sorbitol comprising fertilizer. Specifically, 4 pots of broadleaf grass were grown to 10 inches in height. These pots were placed in a spray chamber for treatment. All compositions contained 1% v/v of Agridex®. The composition containing S-3100 and fertilizer contained 1% v/v of Intact™. Treatments and results can be found in Table 2, below.

[3] = tested on: giant foxtail; assay: Spray-chamber efficacy of S-3100 with or without fertilizer on potted giant foxtail; type: in vivo, Setaria faberi; settings: giant foxtail 10 inches, S-3100 20 grams/ha, Fertilizer 14 liters/ha, 1% v/v Agridex (combination also 1% v/v Intact)
Description: 4 trials were conducted on the efficacy of ethyl [3-[2-chloro-4-fluoro-5-(1-methyl-6-trifluoromethyl-2,4-dioxo-1,2,3,4-tetrahydropyrimidin-3-yl)phenoxy]-2-pyridyloxy]acetate (“S-3100”) with or without a mannitol and/or sorbitol comprising fertilizer. Specifically, 4 pots of giant foxtail were grown to 10 inches in height. These pots were placed in a spray chamber for treatment. All compositions contained 1% v/v of Agridex®. The composition containing S-3100 and fertilizer contained 1% v/v of Intact™. Treatments and results can be found in Table 3, below.

[4] = tested on: volunteer corn; assay: Spray-chamber efficacy of S-3100 with or without fertilizer on potted volunteer corn; type: in vivo, Zea mays; settings: volunteer corn 15 inches, S-3100 20 grams/ha, Fertilizer 14 liters/ha, 1% v/v Agridex (combination also 1% v/v Intact)
Description: 4 trials were conducted on the efficacy of ethyl [3-[2-chloro-4-fluoro-5-(1-methyl-6-trifluoromethyl-2,4-dioxo-1,2,3,4-tetrahydropyrimidin-3-yl)phenoxy]-2-pyridyloxy]acetate (“S-3100”) with or without a mannitol and/or sorbitol comprising fertilizer. Specifically, 4 pots of volunteer corn were grown to 15 inches in height. These pots were placed in a spray chamber for treatment. All compositions contained 1% v/v of Agridex®. The composition containing S-3100 and fertilizer contained 1% v/v of Intact™. Treatments and results can be found in Table 4, below.

CCOC(=O)COc1ncccc1Oc1cc(-n2c(=O)cc(C(F)(F)F)n(C)c2=O)c(F)cc1Cl [S-3100, ethyl [3-[2-chloro-4-fluoro-5-(1-methyl-6-trifluoromethyl-2,4-dioxo-1,2,3,4-tetrahydropyrimidin-3-yl)phenoxy]-2-pyridyloxy]acetate]
% control, 3 Days After Treatment ([1]; 3 DAT): 73.3%
% control, 7 Days After Treatment ([1]; 7 DAT): 85.2%
% control, 13 Days After Treatment ([1]; 13 DAT): 84.7%
% control, 3 Days After Treatment ([2]; 3 DAT): 75.0%
% control, 7 Days After Treatment ([2]; 7 DAT): 93.0%
% control, 14 Days After Treatment ([2]; 14 DAT): 84.2%
% control, 3 Days After Treatment ([3]; 3 DAT): 76.7%
% control, 7 Days After Treatment ([3]; 7 DAT): 95.5%
% control, 14 Days After Treatment ([3]; 14 DAT): 96.1%
% control, 3 Days After Treatment ([4]; 3 DAT): 65.0%
% control, 7 Days After Treatment ([4]; 7 DAT): 59.2%
% control, 14 Days After Treatment ([4]; 14 DAT): 56.7%
